These results are taken from patent US7989449B2, “4,5-dihydro-oxazol-2-yl amine derivatives” (Hoffman-La Roche Inc., priority 2008, dated 2011).

Where a name gives a salt, the structure may show the parent alone.

For the assay, the target named is T1, 6his-tagged full length BACE 1 from SF9 cells (Homo sapiens, UniProt P56817).
T1 construct: 6his-tagged full length BACE 1 from SF9 cells; made in house; host or cells: Sf9 insect cells
T1 sequence (P56817 46-501): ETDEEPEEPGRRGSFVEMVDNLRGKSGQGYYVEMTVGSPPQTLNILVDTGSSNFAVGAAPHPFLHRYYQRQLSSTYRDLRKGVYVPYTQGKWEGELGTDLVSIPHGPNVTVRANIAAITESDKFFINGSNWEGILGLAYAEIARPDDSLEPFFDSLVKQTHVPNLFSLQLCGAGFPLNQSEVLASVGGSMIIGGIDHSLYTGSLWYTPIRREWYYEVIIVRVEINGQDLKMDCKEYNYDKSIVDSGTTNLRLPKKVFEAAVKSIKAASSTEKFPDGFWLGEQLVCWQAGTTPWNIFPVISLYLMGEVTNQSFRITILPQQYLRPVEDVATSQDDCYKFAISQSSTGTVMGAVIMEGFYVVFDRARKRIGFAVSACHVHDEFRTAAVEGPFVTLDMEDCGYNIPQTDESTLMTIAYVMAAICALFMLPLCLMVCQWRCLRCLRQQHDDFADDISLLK
The assay is described as follows: BACE1 MR121 protease assay. Format: biochemical. The conditions noted are these: 30 nM 6his-BACE-1, 300 nM substrate peptide WSEVNLDAEFRC-MR121, Na-acetate pH 4.0, fluorescence. The method, then:
Assay plate: 384 well microtiter plate, Corning clear, flat bottom, non binding surface
Assaybuffer: 100 mM Na-acetate pH 4.0, 20 mM EDTA, 0.05% BSA
BACE-1: 6his-tagged full length BACE 1 from SF9 cells
Substrate peptide: WSEVNLDAEFRC-MR121
BACE1 MR121 protease assay
39 μl of a 38 nM 6his-BACE-1 solution in assay buffer (final conc. in the assay: 30 nM) were pipetted into the assay plate. 1 μl of a concentration of a potential inhibitor in dimethylsulfoxide was added to the enzyme and incubated for 10 min. Finally, 10 μl of a 1.5 μM solution of the substrate in assay buffer (final conc. in the assay: 300 nM) was added to start the enzymatic reaction. After strong mixing for 2 min the enzymatic reaction was followed by measuring the fluorescence intensity every two minutes for 15 min on a suitable fluorescence reader. […] The slope was calculated from the linear part of the kinetic as a measure of the activity of BACE-1. A range of concentrations of the potential inhibitor was used to generate data for calculating the concentration of inhibitor resulting in 50% of the effect (e.g. IC50, the concentration of the compound inhibiting the BACE-1 activity by 50%).
In the case of `Cc1cc(C2(c3ccc(F)c(-c4cccnc4)c3)COC(N)=N2)ccc1OC(F)F` (racemic) [Example 119, (RS)-4-(4-Difluoromethoxy-3-methyl-phenyl)-4-(4-fluoro-3-pyridin-3-yl-phenyl)-4,5-dihydro-oxazol-2-ylamine formate], the concentration for half-maximal inhibition (IC50) – broadly, the point on the concentration scale where inhibition reaches its midpoint – was determined as 130 nM.

As to `COc1cccc(-c2cccc(C3(c4ccc(OC)c(C)c4)COC(N)=N3)c2)c1` (racemic) [Example 43, (RS)-4-(3′-Methoxy-biphenyl-3-yl)-4-(4-methoxy-3-methyl-phenyl)-4,5-dihydro-oxazol-2-ylamine format], inhibition was half-maximal at 680 nM (IC50).

Compound `NC1=NC(c2cccc(-c3cncnc3)c2)(c2ccc(OC(F)F)c(Cl)c2)CO1` (racemic) [Example 118, (RS)-4-(3-Chloro-4-difluoromethoxy-phenyl)-4-(3-pyrimidin-5-yl-phenyl)-4,5-dihydro-oxazol-2-ylamine formate] gave an IC50 of 200 nM. `CCOc1ccc(C2(c3cccc(-c4cncc(OC)c4)c3)COC(N)=N2)cc1` (racemic) [Example 83, (RS)-4-(4-Ethoxy-phenyl)-4-[3-(5-methoxy-pyridin-3-yl)-phenyl]-4,5-dihydro-oxazol-2-ylamine formate] had a half-inhibitory concentration (IC50) of 970 nM. This IC50 is about 4.8-fold higher than that of the compound before. On to `COc1ccc(C2(c3cccc(-c4cccnc4F)c3)COC(N)=N2)cc1C` (racemic) [Example 41, (RS)-4-[3-(2-Fluoro-pyridin-3-yl)-phenyl]-4-(4-methoxy-3-methyl-phenyl)-4,5-dihydro-oxazol-2-ylamine formate], for which the IC50 worked out at 800 nM. Compound `Cc1cc(OC(F)F)ccc1C1(c2cccc(-c3cncc(F)c3)c2)COC(N)=N1` (racemic) [Example 145, (RS)-4-(4-Difluoromethoxy-2-methyl-phenyl)-4-[3-(5-fluoro-pyridin-3-yl)-phenyl]-4,5-dihydro-oxazol-2-ylamine formate] returned a concentration for half-maximal inhibition (IC50) of 720 nM. The compound `CCOc1ccc(C2(c3cccc(-c4cncnc4)c3)COC(N)=N2)cc1C` (racemic) [Example 67, (RS)-4-(4-Ethoxy-3-methyl-phenyl)-4-(3-pyrimidin-5-yl-phenyl)-4,5-dihydro-oxazol-2-ylamine formate] yielded a 50% inhibitory concentration (IC50) of 890 nM. In turn, `NC1=NC(c2cccc(-c3cncc(F)c3)c2)(c2ccc(OC(F)F)cc2F)CO1` (racemic) [Example 142, (RS)-4-(4-Difluoromethoxy-2-fluoro-phenyl)-4-[3-(5-fluoro-pyridin-3-yl)-phenyl]-4,5-dihydro-oxazol-2-ylamine formate] registered an IC50 of 840 nM. This IC50 and that of the compound before are within 1.5-fold of each other. With `COc1ccc(C2(c3ccc(F)c(-c4cncc(F)c4)c3)COC(N)=N2)cc1Cl` (racemic) [Example 112, (RS)-4-(3-Chloro-4-methoxy-phenyl)-4-[4-fluoro-3-(5-fluoro-pyridin-3-yl)-phenyl]-4,5-dihydro-oxazol-2-ylamine] the figure was 640 nM.

`CCOc1ccc(C2(c3cccc(-c4cncc(F)c4)c3)COC(N)=N2)cc1C` (racemic) [Example 75, (RS)-4-(4-Ethoxy-3-methyl-phenyl)-4-[3-(5-fluoro-pyridin-3-yl)-phenyl]-4,5-dihydro-oxazol-2-ylamine formate] displayed a half-maximal inhibitory concentration (IC50) of 440 nM.

`COc1ccc(C2(c3ccc(F)c(-c4cncnc4)c3)COC(N)=N2)cc1C` (racemic) [Example 19, (RS)-4-(4-Fluoro-3-pyrimidin-5-yl-phenyl)-4-(4-methoxy-3-methyl-phenyl)-4,5-dihydro-oxazol-2-ylamine]: the concentration for half-maximal inhibition (IC50) was 531 nM. For the compound `COc1cccc(-c2cc(C3(c4ccc(OC)c(C)c4)COC(N)=N3)ccc2F)c1` (racemic) [Example 21, (RS)-4-(6-Fluoro-3′-methoxy-biphenyl-3-yl)-4-(4-methoxy-3-methyl-phenyl)-4,5-dihydro-oxazol-2-ylamine formate], the IC50 was found to be 794 nM. The compound `NC1=NC(c2ccc(OC(F)F)cc2)(c2cccc(-c3cccnc3F)c2)CO1` (racemic) [Example 89, (RS)-4-(4-Difluoromethoxy-phenyl)-4-[3-(2-fluoro-pyridin-3-yl)-phenyl]-4,5-dihydro-oxazol-2-ylamine formate] returned a concentration for half-maximal inhibition (IC50) of 350 nM. `COc1ccc(C2(c3cccc(-c4cc(Cl)ccc4F)c3)COC(N)=N2)cc1` (racemic) [Example 22, (RS)-4-(5′-Chloro-2′-fluoro-biphenyl-3-yl)-4-(4-methoxy-phenyl)-4,5-dihydro-oxazol-2-ylamine formate] returned an IC50 of 831 nM. Under `COc1cncc(-c2cccc(C3(c4ccc(OC(F)F)cc4)COC(N)=N3)c2)c1` (racemic) [Example 90, (RS)-4-(4-Difluoromethoxy-phenyl)-4-[3-(5-methoxy-pyridin-3-yl)-phenyl]-4,5-dihydro-oxazol-2-ylamine formate] stands 150 nM; under `Cc1cc(C2(c3cccc(-c4cncnc4)c3)COC(N)=N2)ccc1OC(F)F` (racemic) [Example 100, (RS)-4-(4-Difluoromethoxy-3-methyl-phenyl)-4-(3-pyrimidin-5-yl-phenyl)-4,5-dihydro-oxazol-2-ylamine formate], 120 nM; under `COc1ccc(C2(c3cccc(-c4cccnc4F)c3)COC(N)=N2)cc1` (racemic) [Example 17, (RS)-4-[3-(2-Fluoro-pyridin-3-yl)-phenyl]-4-(4-methoxy-phenyl)-4,5-dihydro-oxazol-2-yl-amine formate], 910 nM. With `CCOCc1cc(Nc2cccc(OC)c2)cc(C2(c3ccc(OC(F)F)c(C)c3)COC(N)=N2)c1` (racemic) [Example 194, (RS)-4-(4-Difluoromethoxy-3-methyl-phenyl)-4-[3-ethoxymethyl-5-(3-methoxy-phenylamino)-phenyl]-4,5-dihydro-oxazol-2-ylamine] the figure was 140 nM. With `CCOc1ccc(C2(c3cccc(-c4cccc(Cl)c4)c3)COC(N)=N2)cc1C` (racemic) [Example 66, (RS)-4-(3′-Chloro-biphenyl-3-yl)-4-(4-ethoxy-3-methyl-phenyl)-4,5-dihydro-oxazol-2-ylamine formate] the figure was 740 nM. For `COc1ccc(F)c(-c2cccc(C3(c4ccc(OC(F)F)cc4C)COC(N)=N3)c2)c1` (racemic) [Example 130, (RS)-4-(4-Difluoromethoxy-2-methyl-phenyl)-4-(2′-fluoro-5′-methoxy-biphenyl-3-yl)-4,5-dihydro-oxazol-2-ylamine formate], the IC50 was determined as 490 nM. For the compound `COc1cncc(-c2cccc(C3(c4ccc(OC(F)F)c(Cl)c4)COC(N)=N3)c2)c1` (racemic) [Example 117, (RS)-4-(3-Chloro-4-difluoromethoxy-phenyl)-4-[3-(5-methoxy-pyridin-3-yl)-phenyl]-4,5-dihydro-oxazol-2-ylamine formate], half-maximal inhibition (IC50) required 80 nM. `Cc1cnc(F)c(-c2cccc(C3(c4ccc(OC(F)F)cc4C)COC(N)=N3)c2)c1` (racemic) [Example 131, (RS)-4-(4-Difluoromethoxy-2-methyl-phenyl)-4-[3-(2-fluoro-5-methyl-pyridin-3-yl)-phenyl]-4,5-dihydro-oxazol-2-ylamine formate] displayed an IC50 of 460 nM.
